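The compound was tested at five concentrations on cells cultured in 96-well plates, with a 48-hour exposure period. GI50 marks 50% less growth.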 Calls of active or inactive are those of the source. Cut-off read from the data, not from the text of the source: active = GI50 up to about 1.1 µM and inactive = higher.
Key:
Test in all cases: NCI anticancer screen, dose series, 48 h
[1] = tested on: HCT-116
[2] = tested on: NCI/ADR-RES
[3] = tested on: A498
[4] = tested on: Hs-578T
[5] = tested on: RXF 393
[6] = tested on: COLO 205
[7] = tested on: NCI-H226
[8] = tested on: Malme-3M
[9] = tested on: CCRF-CEM
[10] = tested on: TK-10
[11] = tested on: MDA-MB-435
[12] = tested on: NCI-H23
[13] = tested on: RPMI-8226
[14] = tested on: SK-MEL-2
[15] = tested on: LOX IMVI
[16] = tested on: OVCAR-3
[17] = tested on: SK-MEL-5
[18] = tested on: UACC-62
[19] = tested on: OVCAR-5
[20] = tested on: HOP-62
[21] = tested on: CAKI-1
[22] = tested on: OVCAR-8
[23] = tested on: MOLT-4
[24] = tested on: A549
[25] = tested on: HL-60
[26] = tested on: SN12C
[27] = tested on: DU-145
[28] = tested on: SF-539
[29] = tested on: 786-0
[30] = tested on: NCI-H460
[31] = tested on: EKVX
[32] = tested on: HT-29
[33] = tested on: BT-549
[34] = tested on: U-251
[35] = tested on: SW-620
[36] = tested on: HCC 2998
[37] = tested on: MCF7
[38] = tested on: MDA-N
[39] = tested on: MDA-MB-231
[40] = tested on: UACC-257
[41] = tested on: PC-3
[42] = tested on: SNB-75
[43] = tested on: OVCAR-4
[44] = tested on: SF-268
[45] = tested on: SF-295
[46] = tested on: K562
[47] = tested on: UO-31
[48] = tested on: KM12
[49] = tested on: SNB-19
[50] = tested on: SK-MEL-28
[51] = tested on: IGROV-1
[52] = tested on: HOP-92
[53] = tested on: SK-OV-3
[54] = tested on: T47D
[55] = tested on: HCT-15
[56] = tested on: SR
[57] = tested on: ACHN
[58] = tested on: NCI-H522
[59] = tested on: M14

With N#C[BH2-][n+]1cn(C2CC(OP(=O)(O)OCC3OC(n4cnc5c(N)ncnc54)CC3O)C(CO)O2)c2nc(N)[nH]c(=O)c21 (stereo unspecified) the GI50 [1] was > 100 µM (inactive), the GI50 [2] was > 100 µM (inactive) and the GI50 [3] was > 100 µM (inactive). The GI50 [4] was > 100 µM (inactive), the GI50 [5] was > 100 µM (inactive) and the GI50 [6] was > 100 µM (inactive). The GI50 [7] was > 100 µM (inactive), the GI50 [8] was > 100 µM (inactive) and the GI50 [9] was > 100 µM (inactive). The GI50 [10] was > 100 µM (inactive), the GI50 [11] was > 100 µM (inactive) and the GI50 [12] was > 100 µM (inactive). The GI50 [13] was > 100 µM (inactive), the GI50 [14] was > 100 µM (inactive) and the GI50 [15] was > 100 µM (inactive). The GI50 [16] was > 100 µM (inactive), the GI50 [17] was > 100 µM (inactive) and the GI50 [18] was > 100 µM (inactive). For the same molecule, the GI50 [19] was > 100 µM (inactive), the GI50 [20] was > 100 µM (inactive) and the GI50 [21] was > 100 µM (inactive). For the same molecule, the GI50 [22] was > 100 µM (inactive), the GI50 [23] was > 100 µM (inactive) and the GI50 [24] was > 100 µM (inactive). The GI50 [25] was > 100 µM (inactive), the GI50 [26] was > 100 µM (inactive) and the GI50 [27] was > 100 µM (inactive). For the same molecule, the GI50 [28] was > 100 µM (inactive), the GI50 [29] was > 100 µM (inactive) and the GI50 [30] was > 100 µM (inactive). The GI50 [31] was > 100 µM (inactive), the GI50 [32] was > 100 µM (inactive) and the GI50 [33] was > 100 µM (inactive). For the same molecule, the GI50 [34] was > 100 µM (inactive), the GI50 [35] was > 100 µM (inactive) and the GI50 [36] was > 100 µM (inactive). For the same molecule, the GI50 [37] was > 100 µM (inactive), the GI50 [38] was > 100 µM (inactive) and the GI50 [39] was > 100 µM (inactive). For the same molecule, the GI50 [40] was > 100 µM (inactive), the GI50 [41] was > 100 µM (inactive) and the GI50 [42] was > 100 µM (inactive). For the same molecule, the GI50 [43] was > 100 µM (inactive), the GI50 [44] was > 100 µM (inactive) and the GI50 [45] was > 100 µM (inactive). The GI50 [46] was > 100 µM (inactive), the GI50 [47] was > 100 µM (inactive) and the GI50 [48] was > 100 µM (inactive). The GI50 [49] was > 100 µM (inactive), the GI50 [50] was > 100 µM (inactive) and the GI50 [51] was > 100 µM (inactive). The GI50 [52] was > 100 µM (inactive), the GI50 [53] was > 100 µM (inactive) and the GI50 [54] was > 100 µM (inactive). The GI50 [55] was > 100 µM, the GI50 [56] was > 100 µM (inactive) and the GI50 [57] was > 100 µM (inactive). For the same molecule, the GI50 [58] was > 100 µM (inactive).

NCCCN(CCCCN(CCCN)CCCc1ccccc1)CCCc1ccccc1 was tested, and the GI50 [1] was 1.82 µM (inactive), the GI50 [2] was 20.1 µM (inactive) and the GI50 [3] was 13.1 µM (inactive). The GI50 [4] was 1.81 µM (inactive), the GI50 [5] was 2.37 µM (inactive) and the GI50 [6] was 1.56 µM (inactive). The GI50 [7] was 17.6 µM (inactive), the GI50 [9] was 2.49 µM (inactive) and the GI50 [10] was 12.4 µM (inactive). For the same molecule, the GI50 [11] was 1.74 µM (inactive), the GI50 [12] was 4.32 µM (inactive) and the GI50 [13] was 2.43 µM (inactive). The GI50 [14] was 1.69 µM (inactive), the GI50 [15] was 2.36 µM (inactive) and the GI50 [16] was 1.73 µM (inactive). The GI50 [17] was 1.83 µM (inactive), the GI50 [18] was 1.74 µM (inactive) and the GI50 [19] was 11 µM (inactive). The GI50 [20] was 9.89 µM (inactive), the GI50 [21] was 2.15 µM (inactive) and the GI50 [22] was 8.71 µM (inactive). For the same molecule, the GI50 [23] was 2 µM (inactive), the GI50 [24] was 3.23 µM (inactive) and the GI50 [25] was 1.15 µM (inactive). For the same molecule, the GI50 [26] was 3.9 µM (inactive), the GI50 [27] was 8.11 µM (inactive) and the GI50 [28] was 1.86 µM (inactive). For the same molecule, the GI50 [29] was 1.7 µM (inactive), the GI50 [30] was 1.42 µM (inactive) and the GI50 [31] was 2.99 µM (inactive). The GI50 [32] was 1.85 µM (inactive), the GI50 [33] was 3.03 µM (inactive) and the GI50 [34] was 1.98 µM (inactive). The GI50 [59] was 1.76 µM (inactive), the GI50 [35] was 2.86 µM (inactive) and the GI50 [36] was 1.62 µM (inactive). For the same molecule, the GI50 [37] was 1.96 µM (inactive), the GI50 [38] was 1.74 µM (inactive) and the GI50 [39] was 2.02 µM (inactive). For the same molecule, the GI50 [40] was 1.79 µM (inactive), the GI50 [41] was 3.22 µM (inactive) and the GI50 [42] was 1.93 µM (inactive). The GI50 [43] was 4.89 µM (inactive), the GI50 [44] was 3.07 µM (inactive) and the GI50 [45] was 1.69 µM (inactive). For the same molecule, the GI50 [46] was 1.77 µM (inactive), the GI50 [47] was 2.19 µM (inactive) and the GI50 [48] was 2.55 µM (inactive). The GI50 [49] was 1.19 µM (inactive), the GI50 [50] was 1.51 µM (inactive) and the GI50 [51] was 2.65 µM (inactive). The GI50 [52] was 6.97 µM (inactive), the GI50 [53] was 4.16 µM (inactive) and the GI50 [54] was 6.84 µM (inactive). For the same molecule, the GI50 [55] was 1.96 µM, the GI50 [56] was 2.31 µM (inactive) and the GI50 [57] was 2.68 µM (inactive). For the same molecule, the GI50 [58] was 2.09 µM (inactive).

Reference: ChEMBL document CHEMBL1201862, “PubChem BioAssay data set” (2004)
